Results on one molecule are retold here after patent US20220162238A1, “FATTY ACID COMPOSITION AND APPLICATION THEREOF” (SICHUAN GOWELL PHARMACEUTICAL CO., LTD., priority 2019, published 2022).

Marks after values point to notes of the source that are not given here.

In assay [1] the test system is OXZ-induced mouse IBD model. The assay can be described thus: OXZ-induced mouse IBD model (Example 16). Format: in vivo, Balb/c mice. To be noted: 500 mg/kg intragastrically once a day, 6 days. Here is the method:
1. Animals: Balb/c mice, male (20-22 g); 10 mice per group.
(§1) (1) Normal control group (control group): 0.5 wt % sodium carboxymethyl cellulose was administered intragastrically.
(§2) (2) IBD model group (model group): 0.5 wt % sodium carboxymethyl cellulose was administered intragastrically.
(3) Positive drug sulfasalazine group (SASP group): Dosage: 500 mg/kg, prepared with 0.5 wt % sodium carboxymethyl cellulose; stored at 4° C. and administered intragastrically once a day.
Balb/c mice were adaptively fed in an SPF animal room for one week and then grouped randomly. The mice in the model group and the administration groups were constructed as an IBD mouse model with OXZ by entrusting to the Institute of Materia Medica, Chinese Academy of Medical Sciences. Then, the administration was performed for 6 consecutive days; the normal control group was not treated. The normal control group and the model group were intragastrically administered with 0.5 wt % sodium carboxymethylcellulose, once a day. SASP group and test groups 1 to 2 were administrated intragastrically according to the above experimental scheme, once a day. Animals in each group were sacrificed on day 6 of modeling, and various indicators related to colitis were tested (see the section of Experimental results).

Assay [2] concerns TNBS-induced rat IBD model. The assay can be described thus: TNBS-induced rat IBD model (Example 15). The assay is classed as in vivo, SD rats. Here is the method:
(1) Normal control group (control group): 0.5 wt % sodium carboxymethyl cellulose (CMC-Na) was administered intragastrically.
as §2
(3) Positive drug sulfasalazine group (SASP group): sulfasalazine enteric-coated tablets, dosage: 600 mg/kg, prepared with 0.5% sodium carboxymethyl cellulose; administered intragastrically once a day.
3. Experimental method: After being fasted but water allowed for about 24 hours, rats in each group were anesthetized by intraperitoneal injection of 3% sodium pentobarbital solution, and a plastic tube with a diameter of 2 mm and a length of about 12 cm was gently inserted into the rat body via the anus for about 8 cm deep. The ethanol solution containing TNBS was slowly injected with the dose of TNBS 75 mg/kg and the administration volume of 3 mL/kg body weight, and then about 0.1 mL of air was injected to discharge the medicine remained in the plastic tube into intestine. After the administration, the plastic tube was slowly pulled out, the anus was pinched with hand, and the tail of the rat was lifted and kept upside down for about 30 s, so that the modeling agent can fully penetrate into the intestinal cavity of the rat. The normal control group was injected with the same amount of normal saline, Based on the body weight thereof, 75 TNBS modeled rats were randomly divided into model group, positive drug group (sulfasalazine 600 mg/kg body weight), test groups 1 to 3, 15 rats/group, and a normal control group was set up, in which 15 rats were included. On the second day after modeling, the corresponding test samples were administered intragastrically. The normal control group and the model group were administered with 0.5 wt % CMC-Na once a day for 5 consecutive days. DAI activity score was performed on days 1 and 3 of administration and 24 hours after the last administration. Intestinal mucosal damage was observed 24 hours after the last administration for CMDI scoring. The colon tissue was taken for histopathological examination.

For another assay, the system named is IBD mouse model with DSS. Briefly: DSS-induced IBD mouse model (Example 14). Format: in vivo, C57BL/6J mice. To be noted: 500 mg/kg intragastrically once a day; 6 days of DSS modeling. Here is the method: as §1, §2
(3) Positive drug sulfasalazine group (SASP group): sulfasalazine enteric-coated tablets; dosage: 500 mg/kg, prepared with 0.5 wt % sodium carboxymethyl cellulose; stored at 4° C. and administered intragastrically once a day.
The mice in the model group and the administration groups were constructed as an IBD mouse model with DSS (MP, CA9011-18-1, US, keeping away from light) by entrusting to the Institute of Materia Medica, Chinese Academy of Medical Sciences. The mice in the normal control group were not treated. The normal control group and model group were administered with 0.5 wt % sodium carboxymethyl cellulose intragastrically, once a day. The SASP group and the test group were administered intragastrically according to the above experimental scheme, once a day. […] The animals in each group were sacrificed, and each evaluation indicator of colitis (see the section of Experiment results) was tested, and the anti-IBD pharmacodynamic activity of each test sample was evaluated comprehensively.

Assay [3] relates to DSS-induced IBD mouse model. The assay can be described thus: DSS-induced IBD mouse model (Example 10). The assay is classed as in vivo, C57BL/6J mice. To be noted: 500 mg/kg intragastrically once a day. Here is the method:
1. Animals: C57BL/6J mice, male (18-20 g); 10 mice per group; purchased from Beijing Huafukang Biotechnology Co., Ltd.; license number: SCXK (Beijing) 2014-0004
as §1
(2) IBC model group (model group): 0.5 wt % sodium carboxymethyl cellulose was administered intragastrically.
(3) Positive drug sulfasalazine group (SASP group): Shanghai Sinepharm Factory Co., Ltd. (batch number: 036151102); dosage: 500 mg/kg, prepared with 0.5 wt % sodium carboxymethyl cellulose, stored at 4° C., administered intragastrically once a day.
(4) Test group: the fatty acid compositions of Examples 1 to 9, dosage: 500 mg/kg, prepared with 0.5 wt % sodium carboxymethyl cellulose, stored at 4° C., administered intragastrically once a day.
For the convenience of experimental operation, two experiments were conducted. The fatty acid compositions of Examples 1 to 5 were used for the first experiment; the fatty acid compositions of Examples 6 to 9 were used for the second experiment. Both experiments were operated according to the following methods. C57BL/6J mice were adaptively fed in an SPF animal room (laboratory animal license number: SYXK (Beijing) 2014-0023) for one week, and then randomly grouped. The mice in the model group and the administration groups were constructed as an IBC mouse model with DSS (MP, CA9011-18-1, US) by entrusting to the Institute of Materia Medica, Chinese Academy of Medical Sciences. The mice in the normal control group were not treated. The normal control group (control group) and model group (model group) were administered with 0.5 wt % sodium carboxymethyl cellulose intragastrically, once a day, with an administration volume of 10 mL/kg. The SASP group and the test group were administered intragastrically according to the above experimental scheme, once a day. […] The animals in each group were sacrificed, and each evaluation indicator of colitis was tested (see the section of Experiment results), and the anti-IBD pharmacodynamic activity of each test sample was evaluated comprehensively.
The DAI scoring criteria were as follows:
The histopathology scoring criteria table was as follows: […]

Setting [4] is: SASP 600 mg/kg, Example 4 at 150, 300 and 600 mg/kg.

In the case of `O=C(O)c1cc(/N=N/c2ccc(S(=O)(=O)Nc3ccccn3)cc2)ccc1O` [Positive drug, sulfasalazine], in assay [1], the “DAI composite index inhibition rate (%)” value came out at 50% and the histopathological score is on record as 4.38 ± 0.42. For the same molecule, the “histopathological examination: cases with histological changes of the colon” value in assay [2] (600 mg/kg, model group 6 cases of 15) is 5 cases of 15 cases. Besides, in assay [2] (setting [4]), the “degree of colon histological lesions vs. model group” value was “significantly reduced compared with the model group”; the “symptoms of sparse stools and bloody stools during the administration period” value is given as “alleviated until disappeared”. For the same molecule, the DAI score value entry in assay [2] (d6, 600 mg/kg intragastrically once a day for 5 days, p<0.05) is “lower”. Besides, in assay [2] (d6, 600 mg/kg intragastrically once a day, p<0.05), the CMDI score value result is “lower”. Moreover, the “DAI comprehensive index inhibition rate (%)” value with IBD mouse model with DSS is on record as 38.7^# %. In addition, in assay [3] (first experiment), the “anti-IBD activity / colon tissue damage (in words)” value is “effectively improve the colon tissue damage” and the “disease comprehensive index DAI score vs. model group (in words)” value is given as “reduce the disease comprehensive index DAI score of the experimental animal significantly”. In assay [3] (first experiment, 7 days of DSS modeling), the “DAI comprehensive index inhibition rate (%)” value was 23.08^# %. The molecule further came in with a histopathological score in assay [3] (first experiment, 7 days of DSS modeling, lower is closer to normal) of 7.25 ± 2.14. In addition, the “anti-IBD activity / colon tissue damage (in words)” value in assay [3] (second experiment) is “slightly improve the colon tissue damage”.
